Patent US12091425B2 (AMGEN INC., priority 2016, dated 2024)

How the values were obtained:
[1] = biological target: T1, Mcl-1/Bim interaction, recombinant human Mcl-1 (171-327) (Homo sapiens, UniProt Q07820); assay: Cell free Mcl-1: Bim Affinity Assay (Mcl-1 HTRF); type: binding; settings: cell free Mcl-1:Bim TR-FRET, recombinant human Mcl-1 (171-327)
T1 construct: made in house
In short: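 Displacement of biotinylated Bim 51-76 peptide is followed by TR-FRET. Incubation runs overnight. Duplicate points are fitted with a four-parameter sigmoid to yield IC50.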

[2] = test system: OPM-2 human multiple myeloma cell line; assay: Cell Viability Assay (OPM-2 10 FBS); type: cell-based; settings: OPM-2 cells, 16 h, CellTiter-Glo
In short: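 OPM-2 myeloma cells, 3000/well in medium with 10% FBS, exposed to serially diluted compounds for 16 h at 37° C./5% CO2. Viability read by CellTiter-Glo luminescence; IC50 from 4-parameter logistic fit.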

T1 sequence (Q07820 171-327): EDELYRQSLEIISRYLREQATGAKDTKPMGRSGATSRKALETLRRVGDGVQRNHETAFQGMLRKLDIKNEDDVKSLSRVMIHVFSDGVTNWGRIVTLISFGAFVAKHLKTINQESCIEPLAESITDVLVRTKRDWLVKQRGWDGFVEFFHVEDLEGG

SMILES | IC50 [1] [µM] | IC50 [2] [µM] | IC50 ([2]; Homo sapiens, OPM-2, 16 h) [µM]
CO[C@H]1/C=C/CC[C@@H](C[C@@H](C)O)S(=O)(=O)NC(=O)c2ccc3c(c2)N(C[C@@H]2CC[C@H]21)C[C@@]1(CCCc2cc(Cl)ccc21)CO3 (single isomer, unassigned) [Example 548] | 0.000275 | 0.478 | 
CO[C@H](C)C[C@@H]1CC/C=C/[C@H](OC)[C@@H]2CC[C@H]2CN2C[C@@]3(CCCc4cc(Cl)ccc43)COc3ccc(cc32)C(=O)NS1(=O)=O (single isomer, unassigned) [Example 549] | 0.000554 | 0.285 | 
C[C@@H](O)C[C@@H]1CC/C=C\[C@H](O)[C@@H]2CC[C@H]2CN2C[C@@]3(CCCc4cc(Cl)ccc43)COc3ccc(cc32)C(=O)NS1(=O)=O (single isomer, unassigned) [Example 550] | 0.000581 |  | 7.29
COC(C)CC1CCC=CC(OC)C2CCC2CN2CC3(CCCc4cc(Cl)ccc43)COc3ccc(cc32)C(=O)NS1(=O)=O (single isomer, unassigned) [Example 552] | 0.000481 |  | 2.51
C[C@@H]1[C@@H](C)C/C=C/C[C@H](O)[C@@H]2CC[C@H]2CN2C[C@@]3(CCCc4cc(Cl)ccc43)COc3ccc(cc32)C(=O)NS1(=O)=O (single isomer, unassigned) [Example 555] | 0.00477 | 2.61 | 
C[C@@H]1[C@@H](C)CCCC[C@H](O)[C@@H]2CC[C@H]2CN2C[C@@]3(CCCc4cc(Cl)ccc43)COc3ccc(cc32)C(=O)NS1(=O)=O (single isomer, unassigned) [Example 556] | 0.00165 | 0.781 | 
C[C@H]1C/C=C/C[C@H](O)[C@@H]2CC[C@H]2CN2C[C@@]3(CCCc4cc(Cl)ccc43)COc3ccc(cc32)C(=O)NS(=O)(=O)[C@H]1C (single isomer, unassigned) [Example 557] | 0.00108 | 1.04 | 
CC(C)(O)CC1CCC=CC(O)C2CCC2CN2CC3(CCCc4cc(Cl)ccc43)COc3ccc(cc32)C(=O)NS1(=O)=O (single isomer, unassigned) [Example 558] | 0.000284 |  | 0.891
CC(C)(O)C[C@@H]1CC/C=C/[C@H](O)[C@@H]2CC[C@H]2CN2C[C@@]3(CCCc4cc(Cl)ccc43)COc3ccc(cc32)C(=O)NS1(=O)=O (single isomer, unassigned) [Example 559] | 0.000598 | 4.42 | 
COC(=O)CC[C@]1(C)CC/C=C/[C@H](O)[C@@H]2CC[C@H]2CN2C[C@@]3(CCCc4cc(Cl)ccc43)COc3ccc(cc32)C(=O)NS1(=O)=O (single isomer, unassigned) [Example 561] | 0.00358 | 8.47 | 
COC(=O)CC[C@]1(C)CC/C=C\[C@H](O)[C@@H]2CC[C@H]2CN2C[C@@]3(CCCc4cc(Cl)ccc43)COc3ccc(cc32)C(=O)NS1(=O)=O (single isomer, unassigned) [Example 562] | 0.00112 | 0.986 | 
COC(=O)CC[C@@]1(C)CC/C=C\[C@H](O)[C@@H]2CC[C@H]2CN2C[C@@]3(CCCc4cc(Cl)ccc43)COc3ccc(cc32)C(=O)NS1(=O)=O (single isomer, unassigned) [Example 563] | 0.00269 | 4.5 | 
Cc1nnc(C[C@@H]2CC/C=C/[C@H](O)[C@@H]3CC[C@H]3CN3C[C@@]4(CCCc5cc(Cl)ccc54)COc4ccc(cc43)C(=O)NS2(=O)=O)o1 (single isomer, unassigned) [Example 564] | 0.000308 | 3.04 | 
Cc1nnc(C[C@H]2CC/C=C/[C@H](O)[C@@H]3CC[C@H]3CN3C[C@@]4(CCCc5cc(Cl)ccc54)COc4ccc(cc43)C(=O)NS2(=O)=O)o1 (single isomer, unassigned) [Example 565] | 0.00061 | 12.6 | 
CC(C)OC(=O)CC1C(C)CC=CC(O)C2CCC2CN2CC3(CCCc4cc(Cl)ccc43)COc3ccc(cc32)C(=O)NS1(=O)=O (single isomer, unassigned) [Example 566] | 0.000383 | 0.282 | 
CC(C)OC(=O)CC1C(C)CC=CC(O)C2CCC2CN2CC3(CCCc4cc(Cl)ccc43)COc3ccc(cc32)C(=O)NS1(=O)=O (single isomer, unassigned) [Example 567] | 0.00369 | 4.51 | 
CO[C@H]1C/C=C/[C@H](O)[C@@H]2CC[C@H]2CN2C[C@@]3(CCCc4cc(Cl)ccc43)COc3ccc(cc32)C(=O)NS(=O)(=O)[C@@H]1CC1CC1 (single isomer, unassigned) [Example 574] | 0.000393 | 0.188 | 
CO[C@H]1C/C=C/[C@H](O)[C@@H]2CC[C@H]2CN2C[C@@]3(CCCc4cc(Cl)ccc43)COc3ccc(cc32)C(=O)NS(=O)(=O)[C@@H]1CC1CC1 (single isomer, unassigned) [Example 575] | 0.00321 | 2.07 | 
COC(=O)CC1C(C)CC=CC(OC)C2CCC2CN2CC3(CCCc4cc(Cl)ccc43)COc3ccc(cc32)C(=O)NS1(=O)=O (single isomer, unassigned) [Example 576] | 0.000382 | 0.221 | 

SMILES | IC50 [1] [µM] | IC50 [2] [µM] | IC50 ([2]; Homo sapiens, OPM-2, 16 h) [µM]
NC(=O)OC[C@@H]1CC/C=C/[C@H](O)[C@@H]2CC[C@H]2CN2C[C@@]3(CCCc4cc(Cl)ccc43)COc3ccc(cc32)C(=O)NS1(=O)=O (single isomer, unassigned) [Example 611] | 0.000275 |  | 8.49
NC(=O)OC[C@@H]1CC/C=C\[C@H](O)[C@@H]2CC[C@H]2CN2C[C@@]3(CCCc4cc(Cl)ccc43)COc3ccc(cc32)C(=O)NS1(=O)=O (single isomer, unassigned) [Example 612] | 0.000362 |  | 15.2
N#CCC[C@@H]1CC/C=C/[C@H](O)[C@@H]2CC[C@H]2CN2C[C@@]3(CCCc4cc(Cl)ccc43)COc3ccc(cc32)C(=O)NS1(=O)=O (single isomer, unassigned) [Example 613] | 0.000329 |  | 1.54
N#CCC[C@H]1CC/C=C/[C@H](O)[C@@H]2CC[C@H]2CN2C[C@@]3(CCCc4cc(Cl)ccc43)COc3ccc(cc32)C(=O)NS1(=O)=O (single isomer, unassigned) [Example 614] | 0.00113 | 8.07 | 
CO[C@H]1/C=C/CC[C@@H](CC(C)(C)OC)S(=O)(=O)NC(=O)c2ccc3c(c2)N(C[C@@H]2CC[C@H]21)C[C@@]1(CCCc2cc(Cl)ccc21)CO3 (single isomer, unassigned) [Example 615] | 0.000696 | 0.643 | 
CO[C@H]1/C=C/CC[C@@H](CCO)S(=O)(=O)NC(=O)c2ccc3c(c2)N(C[C@@H]2CC[C@H]21)C[C@@]1(CCCc2cc(Cl)ccc21)CO3 (single isomer, unassigned) [Example 617] | 0.00022 | 11.5 | 
CN(C)C(=O)CC[C@@H]1CC/C=C/[C@H](O)[C@@H]2CC[C@H]2CN2C[C@@]3(CCCc4cc(Cl)ccc43)COc3ccc(cc32)C(=O)NS1(=O)=O (single isomer, unassigned) [Example 618] | 0.000172 | 0.607 | 
COC(=O)CC1CCC=CC(O)C2CCC2CN2CC3(CCCc4cc(Cl)ccc43)COc3ccc(cc32)C(=O)NS1(=O)=O (single isomer, unassigned) [Example 619] | 0.000187 | 0.401 | 
CN(C)C(=O)C[C@@H]1CC/C=C/[C@H](O)[C@@H]2CC[C@H]2CN2C[C@@]3(CCCc4cc(Cl)ccc43)COc3ccc(cc32)C(=O)NS1(=O)=O (single isomer, unassigned) [Example 621] | 0.000225 | 3.67 | 
CO[C@H]1/C=C/CCC(CCC(=O)N(C)C)S(=O)(=O)NC(=O)c2ccc3c(c2)N(C[C@@H]2CC[C@H]21)C[C@@]1(CCCc2cc(Cl)ccc21)CO3 (single isomer, unassigned) [Example 622] | 0.000224 | 0.257 | 
CN(C)S(=O)(=O)N1CCN(C(=O)CC[C@@H]2CC/C=C/[C@H](O)[C@@H]3CC[C@H]3CN3C[C@@]4(CCCc5cc(Cl)ccc54)COc4ccc(cc43)C(=O)NS2(=O)=O)CC1 (single isomer, unassigned) [Example 626] | 0.000305 | 2.2 | 
CN(C)S(=O)(=O)N1CCN(C(=O)C[C@@H]2CC/C=C/[C@H](O)[C@@H]3CC[C@H]3CN3C[C@@]4(CCCc5cc(Cl)ccc54)COc4ccc(cc43)C(=O)NS2(=O)=O)CC1 (single isomer, unassigned) [Example 631] | 0.000298 | 2.53 | 
Cc1nnc(CCC2CCC=CC(O)C3CCC3CN3CC4(CCCc5cc(Cl)ccc54)COc4ccc(cc43)C(=O)NS2(=O)=O)o1 (single isomer, unassigned) [Example 632] | 0.000187 |  | 0.878
O=C1NS(=O)(=O)C(Cc2ccc(Br)cc2)CCC=CC(O)C2CCC2CN2CC3(CCCc4cc(Cl)ccc43)COc3ccc1cc32 (single isomer, unassigned) [Example 633] | 0.0231 | 17.8 | 
COC1CC=CC(O)C2CCC2CN2CC3(CCCc4cc(Cl)ccc43)COc3ccc(cc32)C(=O)NS(=O)(=O)C1CC1CCCO1 (single isomer, unassigned) [Example 638] | 0.000243 |  | 0.131
COC1C=CCC(OC)C(CC2CCCO2)S(=O)(=O)NC(=O)c2ccc3c(c2)N(CC2CCC21)CC1(CCCc2cc(Cl)ccc21)CO3 (single isomer, unassigned) [Example 641] | 0.000537 |  | 0.282
COC1C=CCC(OC)C(CC2CCCO2)S(=O)(=O)NC(=O)c2ccc3c(c2)N(CC2CCC21)CC1(CCCc2cc(Cl)ccc21)CO3 (single isomer, unassigned) [Example 642] | 0.000539 | 0.351 | 
CO[C@H]1C/C=C/[C@H](O)[C@@H]2CC[C@H]2CN2C[C@@]3(CCCc4cc(Cl)ccc43)COc3ccc(cc32)C(=O)NS(=O)(=O)[C@@H]1CC(C)C (single isomer, unassigned) [Example 643] | 0.000337 |  | 0.151
